The values that follow come from patent US20230124862A1, “BISMUTH THIOL COMPOUNDS AND COMPOSITIONS AND METHODS OF TREATING MICROBIAL CO-INFECTIONS” (Microbion Corporation, priority 2020, published 2023).

≈ marks a conversion by molar mass, not a printed value. Where “and” joins values, the source holds several entries; their conditions need not be identical. Identical values can stand only once. Like-named read-outs stand apart in the source and are kept apart here.

For assay [1], the system named is Haemophilus influenzae. Nature of the assay: Broth microdilution MIC, Haemophilus influenzae clinical isolates. Format: cell-based.
Assay [2] concerns Haemophilus influenzae. Particulars: H. influenzae MMX 1224 (ATCC 49247), cited from earlier work.
For assay [3], the system named is B. multivorans. The assay can be described thus: MIC testing of CF isolates. Format: cell-based, Burkholderia multivorans. Particulars: Burkholderia multivorans; strain BC5b; read-out: MIC.
Assay [4] relates to B. cepacia. The assay can be described thus: MIC testing of CF isolates. Particulars: Burkholderia cepacia; strain BC17; read-out: MIC. It is filed as cell-based, Burkholderia cepacia.
Assay [5] relates to B. cenocepacia. The assay can be described thus: MIC testing of CF isolates. Format: cell-based, Burkholderia cenocepacia.
The subject of assay [6] is S. maltophilia. Nature of the assay: MIC testing of CF isolates. It is filed as cell-based, Stenotrophomonas maltophilia. Particulars: strain SM21.
In assay [7] the test system is Achromobacter spp. The assay can be described thus: MIC testing of CF isolates. Format: cell-based. Particulars: strain AX4, A. xylosoxidans; read-out: MIC.
The subject of assay [8] is P. aeruginosa. Nature of the assay: Checkerboard FIC/FICI assay. Format: cell-based, Pseudomonas aeruginosa. The following applies: for FICB / MICB: Amikacin in combination with BisEDT.
Assay [9] relates to Burkholderia cepacia complex. The assay can be described thus: Checkerboard FIC/FICI assay. Format: cell-based, Burkholderia spp. The following applies: for MICB: MIC of Amikacin (Drug B) in combination with BisEDT.
Assay [10] has as its system E. coli ATCC 25922. The following applies: control strain ATCC 25922; cited from earlier work.
Assay [11] has as its system S. aureus ATCC 29213. Particulars: control strain ATCC 29213; cited from earlier work.
Assay [12] deals with Gram-negative organisms (P. aeruginosa, E. coli, A. baumannii, H. influenzae). The assay can be described thus: Broth microdilution MIC with pulmonary surfactant (Survanta). Format: cell-based.
The test system is the same in assay [13]. Particulars: P. aeruginosa ATCC 27853; cited from earlier work.
[14] abbreviates: H. influenzae MMX 1224 (ATCC 49247).
The mark [15] stands for this setting: P. aeruginosa 6322, one value per panel row D-G.
The mark [16] stands for this setting: P. aeruginosa 6977, by checkerboard.
Setting [17] is: P. aeruginosa 7745, by checkerboard.

Take `CC1(C)S[C@@H]2[C@H](NC(=O)[C@H](N)c3ccccc3)C(=O)N2[C@H]1C(=O)O` [AMP]: the MIC in assay [1] (H. influenzae MMX 0797, BLNAR) is 4 µg/mL (≈ 11.4 µM); in assay [1] (setting [14]) it was 2 µg/mL (≈ 5.72 µM); in assay [1] (H. influenzae MMX 1302), 0.25 µg/mL (≈ 0.715 µM); in assay [1] (H. influenzae MMX 1304), 0.25 µg/mL (≈ 0.715 µM); in [1] (H. influenzae MMX 1740), 4 µg/mL (≈ 11.4 µM); in assay [1] (H. influenzae MMX 1741), 4 µg/mL (≈ 11.4 µM). Also, the MIC in [1] (H. influenzae MMX 2795, BLNAR) is 4 µg/mL (≈ 11.4 µM); in assay [1] (H. influenzae MMX 2796, BLNAR) it was 2 µg/mL (≈ 5.72 µM); in assay [1] (H. influenzae MMX 2798, BLNAR), 4 µg/mL (≈ 11.4 µM); in assay [1] (H. influenzae MMX 2799, BLNAR), 4 µg/mL (≈ 11.4 µM); in assay [1] (H. influenzae MMX 5458) it was 0.12 µg/mL (≈ 0.343 µM); in assay [1] (H. influenzae MMX 5461) it was 0.5 µg/mL (≈ 1.43 µM). The MIC in assay [1] (H. influenzae MMX 5469) worked out at 4 µg/mL (≈ 11.4 µM); in [1] (H. influenzae MMX 5494) it was 0.12 µg/mL (≈ 0.343 µM); in assay [1] (H. influenzae MMX 5495) it was 0.25 µg/mL (≈ 0.715 µM); in assay [1] (H. influenzae MMX 5499), 0.25 µg/mL (≈ 0.715 µM). In assay [2] (in µg/mL), the “CLSI Quality Control Range (MIC)” value is 2-8.
On to `CC[C@H]1OC(=O)[C@H](C)[C@@H](O[C@H]2C[C@@](C)(OC)[C@@H](O)[C@H](C)O2)[C@H](C)[C@@H](O[C@@H]2O[C@H](C)C[C@H](N(C)C)[C@H]2O)[C@](C)(O)C[C@@H](C)CN(C)[C@H](C)[C@@H](O)[C@]1(C)O` [AZM], for which the MIC in assay [1] (H. influenzae MMX 0797, BLNAR) amounted to 2 µg/mL (≈ 2.67 µM); in [1] (setting [14]) it was 2 µg/mL (≈ 2.67 µM); in assay [1] (H. influenzae MMX 1302) it was 2 µg/mL (≈ 2.67 µM); in assay [1] (H. influenzae MMX 1304), 2 µg/mL (≈ 2.67 µM); in [1] (H. influenzae MMX 1740) it was 4 µg/mL (≈ 5.34 µM); in [1] (H. influenzae MMX 1741) it was 1 µg/mL (≈ 1.34 µM). The MIC in [1] (H. influenzae MMX 2795, BLNAR) was found to be 2 µg/mL (≈ 2.67 µM); in assay [1] (H. influenzae MMX 2796, BLNAR), 2 µg/mL (≈ 2.67 µM); in assay [1] (H. influenzae MMX 2798, BLNAR), 0.5 µg/mL (≈ 0.668 µM); in assay [1] (H. influenzae MMX 2799, BLNAR), 0.5 µg/mL (≈ 0.668 µM); in assay [1] (H. influenzae MMX 5458) it was 1 µg/mL (≈ 1.34 µM); in assay [1] (H. influenzae MMX 5461) it was 2 µg/mL (≈ 2.67 µM). Moreover, the MIC in [1] (H. influenzae MMX 5469) was 2 µg/mL (≈ 2.67 µM); in assay [1] (H. influenzae MMX 5494), 1 µg/mL (≈ 1.34 µM); in assay [1] (H. influenzae MMX 5495), 0.5 µg/mL (≈ 0.668 µM); in [1] (H. influenzae MMX 5499) it was 2 µg/mL (≈ 2.67 µM). Further, the “CLSI Quality Control Range (MIC)” value in assay [2] (in µg/mL) was 1-4.
In the case of `NCC[C@H](O)C(=O)N[C@@H]1C[C@H](N)[C@@H](O[C@H]2O[C@H](CN)[C@@H](O)[C@H](O)[C@H]2O)[C@H](O)[C@H]1O[C@H]1O[C@H](CO)[C@@H](O)[C@H](N)[C@H]1O` [Amikacin, reference compound], the MIC in [3] was […]; in assay [4], […]; in assay [5] (Burkholderia cenocepacia, strain BC15, read-out: MIC), […]; in assay [5] (strain AU197) it was […]; in [6] it was […]; in assay [7] it was […]. Also, the MIC in assay [8] (Pseudomonas aeruginosa, P. aeruginosa 6977, Amikacin alone (checkerboard with BisEDT), read-out: Drug B MIC) came to […]. The FICB in assay [8] (setting [15]) was […]; in assay [8] (setting [16]), […]; in assay [8] (setting [17]) it was […]; in assay [9] (B. cenocepacia 548, FIC of Amikacin (Drug B) in combination with BisEDT) it was […]; in assay [9] (B. cenocepacia 813, FIC of Amikacin (Drug B) in combination with BisEDT) it was […]; in assay [9] (B. cepacia 546, Amikacin in combination with BisEDT, by checkerboard, Table 60), […]. For the same compound, the FICB in assay [9] (B. cepacia 1793, FIC of Amikacin (Drug B) in combination with BisEDT) is […]; in [9] (B. multivorans 1795, FIC of Amikacin (Drug B) in combination with BisEDT) it was […]. For the same compound, the MICB in [8] (setting [15]) was 128 µg/mL; in assay [8] (setting [16]), […]; in assay [8] (setting [17]), 4 µg/mL; in assay [9] (B. cenocepacia 548), […]; in assay [9] (B. cenocepacia 813) it was […]; in [9] (B. cepacia 1793) it was […]. For the same compound, in assay [9] (B. multivorans 1795), the MICB is […]. In addition, the figures for the “Expected MIC: goal (acceptable range)” value in assay [10] and in assay [11] were […] and […], respectively.
In the case of `C[C@@H](O)[C@H]1C(=O)N2C(C(=O)O)=C(SCCN=CN)C[C@H]12` [Imspenem], the MIC in assay [12] (A. baumanuii CSC 0288, 0 percent Survanta) is 16 µg/mL (≈ 53.4 µM); in assay [12] (A. baumanuii CSC 0288, 1 percent Survanta) it was 16 µg/mL (≈ 53.4 µM); in assay [12] (A. baumanuii CSC 0288, 2.5 percent Survanta), 16 µg/mL (≈ 53.4 µM); in assay [12] (A. baumanuii CSC 0288, 5 percent Survanta), 16 µg/mL (≈ 53.4 µM); in assay [12] (B. cepucia MMX9040, 0 percent Survanta) it was 8 µg/mL (≈ 26.7 µM); in [12] (B. cepucia MMX9040, 1 percent Survanta), 8 µg/mL (≈ 26.7 µM). Moreover, the MIC in [12] (B. cepucia MMX9040, 2.5 percent Survanta) amounted to 8 µg/mL (≈ 26.7 µM); in assay [12] (B. cepucia MMX9040, 5 percent Survanta), 8 µg/mL (≈ 26.7 µM); in assay [12] (B. cepucia MMX9040, 10 percent Survanta), 8 µg/mL (≈ 26.7 µM); in assay [12] (H. Influenzae ATCC 49247, 0 percent Survanta) it was 0.5 µg/mL (≈ 1.67 µM); in assay [12] (H. Influenzae ATCC 49247, 1 percent Survanta) it was 0.5 µg/mL (≈ 1.67 µM); in assay [12] (H. Influenzae ATCC 49247, 2.5 percent Survanta) it was 0.5 µg/mL (≈ 1.67 µM). Further, the MIC in [12] (H. Influenzae MMX 2795, 0 percent Survanta) stood at 1 µg/mL (≈ 3.34 µM); in assay [12] (P. aeruginosa ATCC 27853, 0 percent Survanta) it was 2 µg/mL (≈ 6.68 µM); in assay [12] (P. aeruginosa ATCC 27853, 1 percent Survanta), 2 µg/mL (≈ 6.68 µM); in assay [12] (P. aeruginosa ATCC 27853, 2.5 percent Survanta) it was 2 µg/mL (≈ 6.68 µM); in assay [12] (P. aeruginosa ATCC 27853, 5 percent Survanta), 2 µg/mL (≈ 6.68 µM); in [12] (P. aeruginosa ATCC 27853, 10 percent Survanta), 2 µg/mL (≈ 6.68 µM). In addition, the MIC in assay [12] (P. aeruginosa CDC 0444, 0 percent Survanta) was above 16 µg/mL; in assay [12] (P. aeruginosa CDC 0444, 1 percent Survanta) it was above 16 µg/mL; in assay [12] (P. aeruginosa CDC 0444, 2.5 percent Survanta), above 16 µg/mL; in assay [12] (P. aeruginosa CDC 0444, 5 percent Survanta), above 16 µg/mL; in assay [12] (P. aeruginosa CDC 0444, 10 percent Survanta), above 16 µg/mL. The “CLSI acceptable MIC QC range” value in assay [13] is 1 to 4 µg/mL.
In the case of `C[C@H]1COc2c(N3CCN(C)CC3)c(F)cc3c(=O)c(C(=O)O)cn1c23` [LEV], the MIC was found to be 0.015 µg/mL (≈ 0.0415 µM) in assay [1] (H. influenzae MMX 0797, BLNAR); 0.015 µg/mL (≈ 0.0415 µM) in assay [1] (setting [14]); 0.015 µg/mL (≈ 0.0415 µM) in assay [1] (H. influenzae MMX 1302); 0.015 µg/mL (≈ 0.0415 µM) in assay [1] (H. influenzae MMX 1304); 0.015 µg/mL (≈ 0.0415 µM) in assay [1] (H. influenzae MMX 1740); 0.015 µg/mL (≈ 0.0415 µM) in assay [1] (H. influenzae MMX 1741). Moreover, the MIC in [1] (H. influenzae MMX 2795, BLNAR) stood at 0.015 µg/mL (≈ 0.0415 µM); in assay [1] (H. influenzae MMX 2796, BLNAR), 0.015 µg/mL (≈ 0.0415 µM); in assay [1] (H. influenzae MMX 2798, BLNAR) it was 0.015 µg/mL (≈ 0.0415 µM); in [1] (H. influenzae MMX 2799, BLNAR) it was 0.015 µg/mL (≈ 0.0415 µM); in assay [1] (H. influenzae MMX 5458) it was 0.015 µg/mL (≈ 0.0415 µM); in assay [1] (H. influenzae MMX 5461), 0.03 µg/mL (≈ 0.083 µM). Also, the MIC in [1] (H. influenzae MMX 5469), in assay [1] (H. influenzae MMX 5494), in [1] (H. influenzae MMX 5495) and in assay [1] (H. influenzae MMX 5499) was 0.015 µg/mL (≈ 0.0415 µM) each time. For the same compound, the “CLSI Quality Control Range (MIC)” value in assay [2] is on record as “(0.008-0.03)”.
